Source: ChEMBL document CHEMBL1201862, “PubChem BioAssay data set” (2004)
Each block holds one compound with its values, some of them ahead of it. Activity calls are given as the source filed them.

Tests used:
[1] = target: T1, Methionyl-tRNA synthetase, putative (Trypanosoma brucei brucei, UniProt Q38C91); type: functional, Trypanosoma brucei brucei strain 927/4 GUTat10.1
T1 sequence (Q38C91 whole entry): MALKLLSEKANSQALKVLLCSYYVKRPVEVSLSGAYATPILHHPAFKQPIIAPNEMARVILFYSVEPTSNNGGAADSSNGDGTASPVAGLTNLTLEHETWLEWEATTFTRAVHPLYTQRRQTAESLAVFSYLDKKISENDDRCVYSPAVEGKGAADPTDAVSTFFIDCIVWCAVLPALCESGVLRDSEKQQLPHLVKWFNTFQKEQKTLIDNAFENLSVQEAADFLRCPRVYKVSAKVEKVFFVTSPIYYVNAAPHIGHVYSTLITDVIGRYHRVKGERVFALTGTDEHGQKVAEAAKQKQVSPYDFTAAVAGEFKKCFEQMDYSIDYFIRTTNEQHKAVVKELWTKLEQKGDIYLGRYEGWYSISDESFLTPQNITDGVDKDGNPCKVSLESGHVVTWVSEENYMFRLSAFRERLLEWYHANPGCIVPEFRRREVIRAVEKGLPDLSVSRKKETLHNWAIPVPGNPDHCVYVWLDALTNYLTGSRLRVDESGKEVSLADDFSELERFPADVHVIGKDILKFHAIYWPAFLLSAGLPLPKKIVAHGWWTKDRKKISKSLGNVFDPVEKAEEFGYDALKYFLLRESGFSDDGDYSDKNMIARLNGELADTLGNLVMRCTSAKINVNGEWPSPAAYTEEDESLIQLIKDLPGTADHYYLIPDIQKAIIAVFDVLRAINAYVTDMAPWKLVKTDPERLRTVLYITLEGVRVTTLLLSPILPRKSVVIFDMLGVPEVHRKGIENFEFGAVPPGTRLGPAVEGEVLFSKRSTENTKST

[2] = Counterscreen for inhibitors of Trypanosoma brucei methionyl tRNA synthetase (MetRS): Luminescence-based cell-based high throughput dose response assay to identify compounds that are cytotoxic to Jurkat human T lymphocyte cells.; type: functional
[3] = target: T1, Methionyl-tRNA synthetase, putative; type: functional, Trypanosoma brucei brucei strain 927/4 GUTat10.1; remark: listed apart in the source
[4] = target: T2, Heat shock factor protein 1 (Mus musculus, UniProt P38532); assay: HSF1 potentiators in luciferase reporter cells, confirmation, cell-based, NIH3T3, luminescence, dose retest (AID 435004); type: functional;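 also: stress induced by proteasome inhibitor MG132 added 30 min after compound; luciferase reporter driven by HSF1 response element in NIH3T3 cells; actives raise luminescence as potentiators of the MG132 stress response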
T2 sequence (P38532 whole entry): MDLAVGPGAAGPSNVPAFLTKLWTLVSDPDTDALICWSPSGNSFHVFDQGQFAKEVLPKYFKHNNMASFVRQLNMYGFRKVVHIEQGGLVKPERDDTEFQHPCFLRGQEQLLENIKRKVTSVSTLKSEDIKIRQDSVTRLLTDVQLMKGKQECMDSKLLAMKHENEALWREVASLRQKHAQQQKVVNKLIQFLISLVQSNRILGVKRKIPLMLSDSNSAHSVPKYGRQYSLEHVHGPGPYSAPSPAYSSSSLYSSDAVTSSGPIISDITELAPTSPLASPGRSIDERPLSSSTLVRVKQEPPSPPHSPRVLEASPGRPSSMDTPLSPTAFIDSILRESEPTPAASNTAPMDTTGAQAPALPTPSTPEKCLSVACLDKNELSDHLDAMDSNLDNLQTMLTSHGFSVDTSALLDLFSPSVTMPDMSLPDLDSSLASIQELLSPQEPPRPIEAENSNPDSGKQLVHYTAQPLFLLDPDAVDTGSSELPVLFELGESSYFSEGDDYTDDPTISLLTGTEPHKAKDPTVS

[5] = target: T3, Low molecular weight phosphotyrosine protein phosphatase (Homo sapiens, UniProt P24666); type: functional; conditions: read-out: IC50_Mean
T3 sequence (P24666 whole entry): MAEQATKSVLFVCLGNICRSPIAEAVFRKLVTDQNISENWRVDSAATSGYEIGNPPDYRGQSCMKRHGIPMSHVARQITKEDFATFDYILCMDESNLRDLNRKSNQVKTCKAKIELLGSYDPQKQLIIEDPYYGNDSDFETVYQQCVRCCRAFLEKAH

[6] = target: T3, Low molecular weight phosphotyrosine protein phosphatase; type: functional; conditions: read-out: IC50_Mean; remark: listed apart in the source
Mu-type opioid receptor = Mu-type opioid receptor (Homo sapiens, UniProt P35372); type: functional, cell-based;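 also: U2OS cells with beta-arrestin recruitment to OPRM1 by beta-gal complementation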
[7] = target: 5-hydroxytryptamine receptor 2A (Mus musculus, UniProt P35363); type: functional, cell-based;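 also: CHO-K1 cells with tagged receptor and beta-arrestin; agonist potency measured as compound-induced activation of the receptor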
[8] = target: T4, Sentrin-specific protease 6 (Homo sapiens, UniProt Q9GZR1); type: functional;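 also: Luminescence-based dose-response confirmatory assay of SENP6 inhibition, following up an ultra-high-throughput screen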
T4 sequence (Q9GZR1 whole entry): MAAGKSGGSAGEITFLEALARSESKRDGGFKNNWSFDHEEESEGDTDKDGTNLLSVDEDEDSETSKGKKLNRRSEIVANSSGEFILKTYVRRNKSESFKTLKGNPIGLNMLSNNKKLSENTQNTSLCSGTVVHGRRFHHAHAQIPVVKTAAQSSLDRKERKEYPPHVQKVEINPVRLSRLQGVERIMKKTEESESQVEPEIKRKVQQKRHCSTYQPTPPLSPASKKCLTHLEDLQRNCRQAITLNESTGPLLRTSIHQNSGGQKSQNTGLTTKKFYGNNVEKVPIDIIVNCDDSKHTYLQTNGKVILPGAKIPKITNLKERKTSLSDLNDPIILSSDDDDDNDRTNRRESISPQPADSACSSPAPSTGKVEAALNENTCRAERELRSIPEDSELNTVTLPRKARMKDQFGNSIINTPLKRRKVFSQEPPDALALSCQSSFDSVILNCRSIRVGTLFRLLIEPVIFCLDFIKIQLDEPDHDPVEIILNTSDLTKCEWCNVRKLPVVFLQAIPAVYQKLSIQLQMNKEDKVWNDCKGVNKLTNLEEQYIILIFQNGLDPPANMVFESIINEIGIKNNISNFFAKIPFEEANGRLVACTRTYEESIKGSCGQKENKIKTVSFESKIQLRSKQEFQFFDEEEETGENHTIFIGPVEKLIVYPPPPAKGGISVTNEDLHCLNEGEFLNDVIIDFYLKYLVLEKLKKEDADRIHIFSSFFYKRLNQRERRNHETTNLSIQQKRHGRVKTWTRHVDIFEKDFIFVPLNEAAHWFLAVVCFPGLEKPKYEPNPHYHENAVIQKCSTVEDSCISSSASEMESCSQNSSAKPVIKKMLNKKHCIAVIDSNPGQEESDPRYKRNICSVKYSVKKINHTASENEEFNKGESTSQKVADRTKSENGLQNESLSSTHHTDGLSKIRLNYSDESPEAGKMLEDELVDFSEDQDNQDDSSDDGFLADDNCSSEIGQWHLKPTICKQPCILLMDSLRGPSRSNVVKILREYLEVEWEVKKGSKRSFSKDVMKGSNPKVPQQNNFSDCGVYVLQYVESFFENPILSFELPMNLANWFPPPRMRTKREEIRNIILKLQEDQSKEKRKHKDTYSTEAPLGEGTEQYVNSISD

Caspase-3 = target: T5, Caspase-3 (Homo sapiens, UniProt P42574); type: functional;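 also: Dose-response selectivity test against caspase-3 for candidate inhibitors of sentrin-specific proteases (SENPs)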
T5 sequence (P42574 whole entry): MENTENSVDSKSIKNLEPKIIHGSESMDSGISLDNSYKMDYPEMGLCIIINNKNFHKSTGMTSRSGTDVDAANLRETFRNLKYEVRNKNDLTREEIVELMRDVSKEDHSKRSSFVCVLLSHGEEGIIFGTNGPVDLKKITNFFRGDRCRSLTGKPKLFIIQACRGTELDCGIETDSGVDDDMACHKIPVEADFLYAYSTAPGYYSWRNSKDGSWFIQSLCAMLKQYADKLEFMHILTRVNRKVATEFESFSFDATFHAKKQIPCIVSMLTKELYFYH

[9] = target: T6, Sentrin-specific protease 7 (Homo sapiens, UniProt Q9BQF6); type: functional;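 also: Luminescence-based dose-response confirmation of ultra-high-throughput screening hits, measuring inhibition of SENP7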
T6 sequence (Q9BQF6 whole entry): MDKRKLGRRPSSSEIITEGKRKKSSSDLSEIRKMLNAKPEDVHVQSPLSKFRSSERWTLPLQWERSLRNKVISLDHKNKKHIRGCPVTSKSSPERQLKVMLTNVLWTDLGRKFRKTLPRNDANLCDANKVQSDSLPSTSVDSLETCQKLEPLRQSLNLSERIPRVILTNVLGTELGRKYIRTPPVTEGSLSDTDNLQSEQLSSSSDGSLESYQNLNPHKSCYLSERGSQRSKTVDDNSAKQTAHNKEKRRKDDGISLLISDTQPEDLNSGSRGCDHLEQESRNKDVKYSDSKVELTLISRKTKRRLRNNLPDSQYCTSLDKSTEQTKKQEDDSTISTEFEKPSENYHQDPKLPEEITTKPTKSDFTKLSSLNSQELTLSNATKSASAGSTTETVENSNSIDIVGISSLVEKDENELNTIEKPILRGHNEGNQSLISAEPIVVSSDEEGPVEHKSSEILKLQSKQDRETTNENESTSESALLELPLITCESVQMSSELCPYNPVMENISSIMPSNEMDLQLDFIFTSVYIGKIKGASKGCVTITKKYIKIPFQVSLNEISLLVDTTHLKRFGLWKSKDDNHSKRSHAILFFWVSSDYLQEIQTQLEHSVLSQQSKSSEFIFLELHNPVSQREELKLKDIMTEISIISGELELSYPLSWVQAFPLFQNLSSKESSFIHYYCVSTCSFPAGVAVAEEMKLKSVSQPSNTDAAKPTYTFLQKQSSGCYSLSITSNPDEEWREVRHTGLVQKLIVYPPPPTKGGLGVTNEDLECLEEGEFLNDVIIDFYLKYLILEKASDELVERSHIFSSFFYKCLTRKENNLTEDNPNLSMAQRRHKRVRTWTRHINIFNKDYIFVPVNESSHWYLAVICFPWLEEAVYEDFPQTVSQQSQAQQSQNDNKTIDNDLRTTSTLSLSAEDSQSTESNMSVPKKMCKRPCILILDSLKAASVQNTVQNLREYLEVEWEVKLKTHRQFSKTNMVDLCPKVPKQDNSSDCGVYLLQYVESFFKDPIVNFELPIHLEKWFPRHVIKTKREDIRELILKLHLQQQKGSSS

[10] = NIH-3T3 fibroblast cytotoxicity, dose response, cytotoxicity control, cell-based, fluorescence, Alamar Blue, secondary assay (AID 2327); type: functional;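 also: NIH-3T3 mouse fibroblasts cultured with fluconazole at 8 µg/mL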
[11] = C. albicans growth with fluconazole, confirmation, fluorescence, retest (AID 2467); type: functional, cell-based
[12] = CRF-BP/CRF-R2 complex antagonists, dose response, cell-based, uHTS hits, 384-well (AID 651639); type: functional, Homo sapiens; conditions: read-out: IC50_Mean
[13] = target: T7, Corticotropin-releasing factor receptor 2/Corticotropin-releasing factor-binding protein (Homo sapiens, UniProt P24387+Q13324); assay: Dose Response confirmation of uHTS hits for small molecule antagonists of the CRF-binding protein and CRF-R2 receptor complex.; type: functional; conditions: read-out: IC50_Mean
T7 sequence (Q13324 whole entry): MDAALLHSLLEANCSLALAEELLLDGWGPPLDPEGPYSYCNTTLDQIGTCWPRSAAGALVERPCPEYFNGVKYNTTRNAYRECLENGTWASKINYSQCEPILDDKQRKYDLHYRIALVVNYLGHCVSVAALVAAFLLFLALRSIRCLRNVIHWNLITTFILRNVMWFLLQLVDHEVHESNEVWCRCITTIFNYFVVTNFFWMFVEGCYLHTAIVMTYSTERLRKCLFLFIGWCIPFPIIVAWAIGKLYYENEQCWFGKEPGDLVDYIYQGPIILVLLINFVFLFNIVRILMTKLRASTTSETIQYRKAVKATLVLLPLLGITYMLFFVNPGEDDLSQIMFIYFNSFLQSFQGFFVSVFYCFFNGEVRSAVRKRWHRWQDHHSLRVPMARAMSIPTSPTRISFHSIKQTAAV
T7 sequence (P24387 whole entry): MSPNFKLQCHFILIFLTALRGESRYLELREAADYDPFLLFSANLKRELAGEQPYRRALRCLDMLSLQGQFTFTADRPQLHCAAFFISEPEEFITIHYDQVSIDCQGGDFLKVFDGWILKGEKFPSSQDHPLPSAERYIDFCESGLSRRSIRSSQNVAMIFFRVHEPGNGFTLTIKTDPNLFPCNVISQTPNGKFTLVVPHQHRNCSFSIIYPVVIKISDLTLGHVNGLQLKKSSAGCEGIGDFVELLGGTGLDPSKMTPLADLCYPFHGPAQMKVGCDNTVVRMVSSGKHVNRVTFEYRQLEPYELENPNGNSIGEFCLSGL

[14] = target: T8, Sentrin-specific protease 8 (Homo sapiens, UniProt Q96LD8); type: functional;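 also: luminescence read-out of SENP8 inhibition, dose-response confirmation following an ultra-high-throughput screen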
T8 sequence (Q96LD8 whole entry): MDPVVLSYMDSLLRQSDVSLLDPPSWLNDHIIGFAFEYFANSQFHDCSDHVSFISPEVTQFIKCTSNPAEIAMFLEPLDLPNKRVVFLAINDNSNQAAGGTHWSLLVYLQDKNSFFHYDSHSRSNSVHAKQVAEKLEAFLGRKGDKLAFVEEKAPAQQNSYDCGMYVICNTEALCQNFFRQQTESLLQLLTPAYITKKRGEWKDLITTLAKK

[15] = target: T7, Corticotropin-releasing factor receptor 2/Corticotropin-releasing factor-binding protein; assay: activators of CRF receptor 2 with binding protein – uHTS hits, confirmation (AID 602473); type: functional; conditions: read-out: EC50_Mean

Mu-type opioid receptor, sequence (P35372 whole entry): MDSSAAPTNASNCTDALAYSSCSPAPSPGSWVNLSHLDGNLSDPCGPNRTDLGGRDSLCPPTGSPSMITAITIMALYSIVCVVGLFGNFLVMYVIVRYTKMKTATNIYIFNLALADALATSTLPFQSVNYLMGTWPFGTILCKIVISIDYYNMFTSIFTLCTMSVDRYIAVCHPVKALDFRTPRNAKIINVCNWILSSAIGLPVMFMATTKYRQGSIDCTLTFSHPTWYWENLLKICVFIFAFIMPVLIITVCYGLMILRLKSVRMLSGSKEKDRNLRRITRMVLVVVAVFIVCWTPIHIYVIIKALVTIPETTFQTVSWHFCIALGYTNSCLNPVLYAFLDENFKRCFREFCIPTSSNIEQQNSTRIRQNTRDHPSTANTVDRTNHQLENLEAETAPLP
5-hydroxytryptamine receptor 2A, sequence (P35363 whole entry): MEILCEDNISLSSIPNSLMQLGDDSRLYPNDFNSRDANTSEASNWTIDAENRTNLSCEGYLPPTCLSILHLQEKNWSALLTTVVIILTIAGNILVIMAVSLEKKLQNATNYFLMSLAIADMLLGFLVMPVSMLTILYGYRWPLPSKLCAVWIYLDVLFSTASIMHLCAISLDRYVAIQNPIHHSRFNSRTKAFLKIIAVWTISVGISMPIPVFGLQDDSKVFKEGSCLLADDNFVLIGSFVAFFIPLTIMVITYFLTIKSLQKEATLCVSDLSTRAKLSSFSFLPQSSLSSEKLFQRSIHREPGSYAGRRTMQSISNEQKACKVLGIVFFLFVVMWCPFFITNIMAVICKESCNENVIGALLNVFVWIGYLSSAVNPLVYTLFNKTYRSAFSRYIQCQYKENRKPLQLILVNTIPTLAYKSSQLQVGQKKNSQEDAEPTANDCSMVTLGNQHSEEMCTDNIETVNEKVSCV

Structure (SMILES): O=C(Cc1cccc(Cl)c1)Nc1ccc(Br)cc1
IC50 [1]: 7.49 µM (active)
IC50 [2]: 83.3 µM (inactive)
IC50 [3]: 11.1 µM (inactive)

Structure (SMILES): Cn1c(CCCOc2ccc(Cl)cc2Cl)nnc1SCC(=O)Nc1cccc(F)c1
IC50 [1]: 52.2 µM (inactive)
IC50 [2]: 28.3 µM (inactive)
EC50 [4]: 181 µM (active)
IC50 [3]: 119 µM (inactive)

IC50 [5]: 13.1 µM (active)
IC50 [6]: 54.9 µM (inactive)
Structure (SMILES): COc1ccc(Nc2nc(-c3ccc4c(c3)NC(=O)CO4)cs2)cc1

EC50 (Mu-type opioid receptor): 92.5 µM (inactive)
EC50 [7]: 2.8 µM (active)
Structure (SMILES): COc1ccc(CN2CCN(C(=O)c3ccco3)CC2)cc1OC

IC50 [5]: 11.5 µM (active)
IC50 [6]: 2.34 µM (active)
Structure (SMILES): Cc1nccc(O)c1Cc1c(Cl)cccc1Cl

EC50 (Mu-type opioid receptor): 92.5 µM (inactive)
EC50 [7]: 0.277 µM (active)
Structure (SMILES): Fc1cccc(CN2CCN(c3ncccn3)CC2)c1

Structure (SMILES): COc1ccc(NC(=O)CC2C(=O)N(C)C(=S)N2CCc2ccc(F)cc2)cc1 (configuration not stated)
IC50 [1]: 6.36 µM (active)
IC50 [2]: 63.3 µM (inactive)
IC50 [3]: 17.4 µM (inactive)

Structure (SMILES): Cc1ccc(SCC(=O)Nc2cc([N+](=O)[O-])ccc2O)cc1
IC50 [8]: 25.6 µM (active)
IC50 (Caspase-3): 17.9 µM (active)
IC50 [9]: 29.3 µM (active)
EC50 [10]: > 150 µM (inconclusive)
EC50 [11]: 0.046 µM (active)
IC50 [12]: 13.5 µM (active)
IC50 [13]: 2.34 µM (active)
IC50 [14]: 31.3 µM (active)
EC50 [15]: 23.4 µM (active)
